Laboratory results taken from US8283481B2, “Inhibitors of a 9-cis epoxycarotenoid dioxygenase” (National Research Council of Canada, priority 2008, dated 2012).
pKi: −log10 of the molar value.

Legend:
recombinant AtNCED3 = molecular target: T1, recombinant AtNCED3 (Arabidopsis thaliana, UniProt Q9LRR7); assay: Recombinant AtNCED3 in vitro enzyme assay (HPLC, cleavage of 9-cis-neoxanthin); format: biochemical; conditions: for pKi: Dixon plot, competitive inhibition, 0-250 μM inhibitor, 9-cis-neoxanthin at 50 (55), 30 and 10 μM; for relative inhibition of AtNCED3 activity (in words): in vitro enzyme assay, 1 mM concentration (FIG. 5)
T1 construct: glutathione-S-transferase (GST) (C); made in house; host or cells: E. coli BL21(DE3), pRL296 vector
T1 sequence (Q9LRR7 41-599): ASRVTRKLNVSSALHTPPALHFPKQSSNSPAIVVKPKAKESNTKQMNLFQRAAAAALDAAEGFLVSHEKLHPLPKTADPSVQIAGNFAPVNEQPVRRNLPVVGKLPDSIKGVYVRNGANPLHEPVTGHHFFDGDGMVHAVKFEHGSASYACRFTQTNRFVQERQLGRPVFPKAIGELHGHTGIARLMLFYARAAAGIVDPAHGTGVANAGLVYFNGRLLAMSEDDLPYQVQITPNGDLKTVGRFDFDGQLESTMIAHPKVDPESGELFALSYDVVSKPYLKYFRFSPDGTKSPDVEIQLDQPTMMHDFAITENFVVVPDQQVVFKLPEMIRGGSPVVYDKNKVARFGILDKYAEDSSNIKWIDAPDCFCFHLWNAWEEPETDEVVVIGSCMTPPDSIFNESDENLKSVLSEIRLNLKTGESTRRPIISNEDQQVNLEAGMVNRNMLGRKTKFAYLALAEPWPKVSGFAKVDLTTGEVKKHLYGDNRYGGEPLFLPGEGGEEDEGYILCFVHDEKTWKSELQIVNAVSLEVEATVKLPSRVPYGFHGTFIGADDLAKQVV
Text: Fresh spinach was macerated under liquid nitrogen and extracted five times with three volumes of methanol/0.1% KOH. Samples were dried using a roto-evaporator, resuspended in acetone and then chilled on ice for one hour. The solvent was subsequently transferred to a new flask, roto-evaporated and resuspended in acetonitrile/acetone (1:1) mixture. The mixture was applied to a gravity flow column containing C-18 silica gel (Sigma) equilibrated in 65% acetonitrile/35% water (solvent C). The column was washed with 49% acetone (solvent D)/51% solvent A and 20 mL of 55% solvent D/45% solvent A while collecting 5 mL fractions. Fractions containing neoxanthin were pooled, dried, and resuspended in 100 μL of methanol. The pooled mixture was separated using an Agilent 1100 series HPLC and a Supelcosil™ LC-18 (25 cm×10 mm, 5 m) (Supelco) column equilibrated with solvent A. The HPLC method consisted of a linear gradient over 30 minutes from 100% solvent A to 100% solvent D with a flow rate of 4 mL/minute at 22° C. and monitored with a PDA detector at 436 nm. The neoxanthin fractions were collected, dried and resuspended in ethanol. Neoxanthin was quantified by determining its OD439 using a PerkinElmer Lambda 35 UV/VIS Spectrometer and applying its extinction coefficient of 2243 (A^1%1cm).^30
AtNCED3 was over-expressed using the pRL296 expression vector (a gift from M. Cygler, BRI, Montreal) in E. coli (BL21)DE3 cells as a glutathione-S-transferase fusion protein and affinity purified using glutathione sepharose 4 fast flow resin (GE Healthcare) as described previously.^35 Essentially, cells were grown to an OD600 of 0.45 at 37° C. and 200 rpm shaking. The culture was induced with 1 mM isopropyl-β-d-thiogalactoside for 16 h at 15° C. and 200 rpm shaking. The cells were pelleted and resuspended in 50 mM Tris-HCl (pH 8.0) 1 mM DTT and 0.5% protease inhibitor cocktail set III (CalBiochem). Cells were lysed using a french press at 20,000 psi and affinity purified as per manufacturer's instructions (GE Healthcare). Protein concentration was determined by the method of Bradford.^36
Enzymatic assays contained 100 mM Bis-Tris (pH 6.7), […], 10 mM ascorbate, 0.05% Triton™ X-100, catalase (1 mg/mL), neoxanthin and inhibitor to a total volume of 5 L of ethanol and 8 g AtNCED3 to a total assay volume of 100 L. Assays were incubated at 22° C. for 20 min. The assays were stopped with the addition of 50 L of 25% Triton™ X-100 and extracted with 150 L of ethyl acetate. All procedures were performed under red-light to minimize photo-induced damage to assay components and products.^6 Fine chemicals and solvents were purchased from Sigma-Aldrich. 75 μL of the assay extract was injected into an Agilent 1100 series HPLC machine equipped with a Supelcosil™ LC-18 (3.3 cm×4.6 mm, 3 m) (Supelco) column pre-equilibrated with 15% acetonitrile (solvent B)/85% water (solvent A). Solvent B increased to 35% over ten minutes, followed by a linear gradient of 65% solvent B to 100% solvent D over 10 minutes. Solvent D was maintained at 100% for 2 minutes and then the column was returned to 15% solvent B for 5 min. The flow rate was maintained at 1.5 mL/min. and monitored with a photodiode array (PDA) detector at 436 and 262 nm.
Evaluation of recombinant AtNCED3 kinetic parameters for Km was accomplished using Michaelis-Menten equation plotted with EnzFitter™ v2.0.18.0 (Biosoft). The Ki for inhibitors was determined using a Dixon plot and concentration ranges of 250, 200, 150, 100, 50 and 0 μM inhibitor in the presence of either 55, 30 or 10 μM 9-cis-neoxanthin 2.^5

[1] = system: Arabidopsis thaliana Col-0 seeds; assay: Seed germination assay; format: in vivo
Procedure: Arabidopsis thaliana Col-0 seeds were sterilized by washing them with 10% sodium hypochlorite and 20% sodium dodecyl sulfate (Sigma) for five minutes and then rinsing four times with sterile water. Seeds were moist chilled for 4 days and then plated on germination medium (0.41% MS salts, 1% sucrose, 0.05% MES and 0.1% Gamborg's vitamins, pH 5.7, 0.7% agar) (Sigma) containing either 0.1, 0.33, 1.0 or 3.33 μM of inhibitor or (+)-ABA 1. As a control, seeds were sewn and germinated on media only without inhibitors or (+)-ABA 1. Germination was recorded over seven days and indexes calculated as described previously.^40

[2] = highest concentration tested (3.33 μM)

Compound	inhibition at 1000 µM (recombinant AtNCED3; 1 mM compound) [%]	pKi (recombinant AtNCED3)	reduction of seed germination ([1]; 1 μM in germination medium) [%]	less effect on germination than (+)-ABA 1 ([1]; compared with (+)-ABA 1)	reduction of seed germination [1, 2] [%]	effect on seed germination at low concentrations (in words) [1]	relative inhibition of AtNCED3 activity (in words) (recombinant AtNCED3)
CCSCC=C(C)C#CC1(O)C(C)CC(=O)CC1(C)C (racemic) [Compound 13, (4S,5R/4R,5S)-(3′Z)-4-(5′-(Ethylthio)-3′-methylpent-3′-en-1′-ynyl)-4-hydroxy-3,3,5-trimethylcyclohexanone]	75	4.03	26	60-70%	38	slight promotion effects	–
C/C(C#C[C@@]12O[C@]1(C)C[C@@H](O)CC2(C)C)=C/CNc1ccccc1 [Compound 18, (1R,3S,6R)-(3′Z)-1,5,5-Trimethyl-6-(3′-methyl-5′-(phenylamino)-pent-3′-en-1-ynyl)-7-oxabicyclo[4.1.0]heptan-3-ol]	–	4.06	50	–	71	–	completely inhibited
C/C(C#C[C@@]12O[C@]1(C)C[C@@H](O)CC2(C)C)=C/CSc1ccccc1 [Compound 17, (1R,3S,6R)-(3′Z)-1,5,5-Trimethyl-6-(3′-methyl-5′-(phenylthio)-pent-3′-en-1′-ynyl)-7-oxa-bicyclo[4.1.0]heptan-3-ol]	–	4.24	26	–	51	slight promotion effects	completely inhibited
